Results as given in US8492342B2, “Preprocalcitonin antigen T epitopes” (Institut Gustave Roussy, priority 2007, dated 2013).

Assays:
Type in all cases: cell-based, human
IGR-Heu tumor cells = assay: Proteasome inhibition: CTL recognition (TNFβ release) of inhibitor-treated IGR-Heu tumor cells; details: 10 μM, FIG. 4A
Experimental: FIG. 4: Processing of the preprocalcitonin16-25 peptide is proteasome- and TAP-independent. A. IGR-Heu target cells were incubated for 2 h at 37° C. in the presence or absence of the proteasome-specific inhibitor epoxomicin, and then Heu161 cells were added. The autologous Heu127 clone, recognizing on IGR-Heu a proteasome-dependent mutated α-actinin-4 peptide, was included as a positive control. TNFβ released in medium after 24 h of culture was measured as above. B. 293-EBNA cells were cotransfected with pCEP4 containing either cDNA 150 (upper panel) or the mutated α-actinin-4 cDNA (lower panel), with pcDNA3.1 containing an HLA-A*0201 construct, and with various amounts of vector pBJi-neo containing IPC47 cDNA. CTL clones Heu161 (upper panel) or Heu127 (lower panel) were then added. Controls included 293-EBNA cells transfected with HLA-A2 or pBJi-neo-IPC47 alone, and incubation of transfectants with either preprocalcitonin or α-actinin-4 peptides. Data shown are representative of four independent experiments.
(§1) TNFβ was detected by measuring the cytotoxicity of the culture medium on TNF-sensitive WEHI-164c13 cells with a MTT colorimetric assay (ESPEVIK & NISSEN-MEYER, J Immunol Methods, 95, 99-105, 1986).
For proteasomes and SP inhibition, 10^6 tumor cells were resuspended in 300 μl of media in the presence or absence of specific inhibitors. […]

CTL clone Heu161 [1] = assay: CTL stimulation (TNF release) by synthetic peptides loaded on HLA-A2+ MZ2-MEL.3.1 melanoma cells
Experimental: (§2) FIG. 3: Identification of the antigenic peptide recognized by CTL clone Heu161. A. CTL stimulation with purified synthetic peptides. Peptides were loaded on allogeneic HLA-A2^+ MZ2-MEL.3.1 melanoma cells for 60 min at room temperature before addition of CTL clone Heu161. TNF release was measured 16 h later. Empty circles represent the results obtained with peptide SEQ ID NO: 1, full circles represent the results obtained with peptide SEQ ID NO: 2, empty squares represent the results obtained with peptide SEQ ID NO: 24, full squares represent the results obtained with peptide SEQ ID NO: 25 and empty diamonds represent the results obtained with peptide SEQ ID NO: 26. B. Lytic activity of CTL clone on peptide-pulsed cells. ^51Cr-labeled Heu-EBV-B cells were incubated over 60 min with the indicated concentrations of peptides before addition of CTL clone Heu161 at an E/T cell ratio of 10:1. Chromium release was measured after 4 h. Empty circles represent the results obtained with peptide SEQ ID NO: 1, full circles represent the results obtained with peptide SEQ ID NO: 2
as §1
We then prepared a series of calcitonin cDNA fragments truncated at their 5′ end and engineered to contain an initiation codon and a Kozak consensus sequence. […] Further trimming narrowed down the peptide-encoding region to residues 9-38 (FIG. 2B). Among a set of overlapping peptides covering this region, only two were recognized by CTL clone Heu161: VLLQAGSLHA (SEQ ID NO: 1) and LVLLQAGSLHA (SEQ ID NO: 2), which are identical, but with an additional leucine in the latter peptide. […] In a lysis assay, the decamer was slightly more efficient than the 11-mer peptide by a factor of about three (FIG. 3B). We concluded that the optimal antigenic peptide recognized by CTL clone Heu161 was VLLQAGSLHA (SEQ ID NO: 1) or preprocalcitonin16-25. This peptide corresponds exactly to the C-terminal part of the preprocalcitonin signal peptide (LE MOULLEC et al., FEBS Lett, 167, 93-7, 1984).

CTL clone Heu161 [2] = assay: Lytic activity of CTL clone on peptide-pulsed 51Cr-labeled Heu-EBV-B cells; details: E/T 10:1, 4 h chromium release, FIG. 3B
Experimental: as §2
Cytotoxic activity was measured by a conventional 4-h ^51Cr-release assay using triplicate cultures in round-bottomed 96-well plates. Percent specific cytotoxicity was calculated conventionally; SD were <5%. […]

Compound	effect on recognition by anti-preprocalcitonin CTL clone Heu161 (IGR-Heu tumor cells)	EC50 (CTL clone Heu161 [1]; HLA-A2+ melanoma cells loaded 60 min, TNF release after 16 h, FIG. 3A, read-out: peptide concentration giving half-maximal effect (sensitization to recognition by CTL Heu161)) [nM]	recognition of peptide by CTL clone Heu161 (CTL clone Heu161 [1]; overlapping synthetic peptides of preprocalcitonin)	efficiency in lysis assay, decamer relative to 11-mer (factor) (CTL clone Heu161 [2])
CC[C@H](C)[C@H](NC(=O)[C@H]([C@@H](C)CC)N(C)C(C)=O)C(=O)N[C@H](C(=O)N[C@@H](CC(C)C)C(=O)[C@@]1(C)CO1)[C@@H](C)O [epoxomicin]	no effect			
VLLQAGSLHA [SEQ ID NO: 1, optimal antigenic peptide recognized by CTL clone Heu161, C-terminal part of the preprocalcitonin signal peptide]		~10	recognized	about three
